{"source": "patent US6998397B2", "about": "“Method for decreasing cholesterol level in blood” (Drebsk Comptech, Inc., priority 2004, dated 2006)", "key": {"Solubility in water": {"experiment": "Solubility in water", "format": "physicochemical", "source_text": "Compositions useful for administration of EBI can be easily prepared. The simplest way is the use of water-based solutions. […] Preferable concentrations are laying in the range of 10^−5–10^−6% that corresponds to 0.1–0.01 mcg/ml. […] Other drinkable or eatable forms and non-aqueous carriers may also be used."}, "[1]": {"test_system": "Volunteers with a high level of cholesterol", "experiment": "Total cholesterol in volunteers with high cholesterol after four-week administration", "format": "in vivo, human", "description": "Volunteers with a high level of cholesterol were selected for clinical study. During the experiment, each patient had their normal personal diet without any special limitations (fats, high-cholesterol food, etc.). All the patients received daily EBI (2.5 mcg) dissolved in ethanol (0.03 ml) and mixed with water (50 ml). Administering the EBI was not adjusted with the meal-receiving time."}, "rats": {"test_system": "rats", "settings": "acute toxicity; cited from earlier work"}, "[2]": {"settings": "prolonged and chronic experiments; cited from earlier work"}, "mice": {"test_system": "mice", "settings": "acute toxicity; cited from earlier work"}, "[3]": {"test_system": "White rats fed with a standard food and drink diet", "experiment": "Total blood serum cholesterol in rats on normal diet, 36-week intragastrular administration", "format": "in vivo, rat", "settings": "36 weeks", "description": "White rats (mails) were fed with a standard food and drink diet. Experimental and control groups (7 animals in each) were formed by randomization using body mass as the principal feature. EBI was administered to the experimental animals intragastrularly as a water solution during 36 weeks. The control group received an equivalent amount of placebo. At the end of each experiment, animals were decapitated under light ether narcosis 18 hours after food withdrawal. Total cholesterol in blood serum was measured enzymatically."}, "[4]": {"test_system": "rats fed with high-cholesterol diet", "experiment": "Lipid metabolism and redox-vitamins in blood serum of rats under high-cholesterol diet, four-week administration", "format": "in vivo, rat", "settings": "4 weeks; for HDL / LDL / VLDL: blood serum lipoprotein fraction; for HDL / LDL / VLDL / Total cholesterol / Triglycerids / Vitamin A / Vitamin E: high-cholesterol diet; for Total cholesterol / Triglycerids / Vitamin A / Vitamin E: blood serum", "description": "Forty white rats (mails) were divided for four groups (ten in each) by randomization using body mass as the principal feature. One group (control) was fed with a normal diet, and three others were fed with a high-cholesterol diet. The latter once received three times per week special food with the following additives: cholesterol (500 mg/kg), vitamin D3 (10000 ME/kg) and pork fat (1000 mg/kg). As a drink, these animals daily received a mixture (1:1) of glucose (5% water solution) and sodium chloride (2.5% water solution). Two groups of animals fed with the high-cholesterol diet received daily a water solution of EBI intragastrularly, and the control group received an equivalent amount of placebo. At the end of each experiment, animals were decapitated under light ether narcosis 18 hours after food withdrawal. Total cholesterol and triglycerides in blood serum were measured enzymatically. Lipoproteins were divided by electrophoresis in agar gel, then dyed with lipid-specific stuff and measured by a direct densitometry. Vitamins A and E were measured by fluorimetric analysis."}, "[5]": {"settings": "2 mcg/kg daily, listed as 24-epibrassinolide"}, "[6]": {"settings": "20 mcg/kg daily, listed as 24-epibrassinolide"}}}
{"smiles": "CC(C)[C@@H](C)[C@@H](O)[C@H](O)[C@@H](C)[C@H]1CC[C@H]2[C@@H]3COC(=O)[C@H]4C[C@H](O)[C@H](O)C[C@]4(C)[C@H]3CC[C@]12C", "note": "[EBI, 24-epibrassinolide]", "values": [{"measurement": "solubility in water", "setting": "Solubility in water", "value": "relatively small"}, {"measurement": "plasma total cholesterol lower than the starting level, on average", "setting": "[1]; 6 volunteers with hypercholesterolemia, 2.5 mcg daily, 4 weeks", "value": 38, "unit": "%"}, {"measurement": "Total Cholesterol in Plasma (after 4 weeks)", "setting": "[1]; humans, 2.5 mcg daily oral, start 287.1 ± 38.8", "value": "177.8 ± 12.3", "unit": "mg/deciliter"}, {"measurement": "Percentage Change in Cholesterol", "setting": "[1]; humans, 2.5 mcg daily, 4 weeks, vs start", "value": "−38", "unit": "%"}, {"measurement": "LD50", "setting": "rats", "value": "more than 2000 mg/kg"}, {"measurement": "postponed negative effects", "setting": "[2]", "value": "no postponed negative effects"}, {"measurement": "LD50", "setting": "mice", "value": "more than 1000 mg/kg"}, {"measurement": "total blood serum cholesterol", "setting": "[3]; 0.2 mcg/kg intragastrular", "value": "62.17 ± 5.54", "unit": "mg/deciliter"}, {"measurement": "total blood serum cholesterol, percentage change vs control", "setting": "[3]; 0.2 mcg/kg intragastrular", "value": "−9", "unit": "%"}, {"measurement": "total blood serum cholesterol", "setting": "[3]; 2 mcg/kg intragastrular", "value": "57.81 ± 6.34", "unit": "mg/deciliter"}, {"measurement": "total blood serum cholesterol, percentage change vs control", "setting": "[3]; 2 mcg/kg intragastrular", "value": "−15", "unit": "%"}, {"measurement": "total blood serum cholesterol", "setting": "[3]; 20 mcg/kg intragastrular", "value": "54.25 ± 3.17", "unit": "mg/deciliter"}, {"measurement": "total blood serum cholesterol, percentage change vs control", "setting": "[3]; 20 mcg/kg intragastrular", "value": "(−20%)"}, {"measurement": "total blood serum cholesterol", "setting": "[3]; 200 mcg/kg intragastrular", "value": "51.08 ± 5.15", "unit": "mg/deciliter"}, {"measurement": "total blood serum cholesterol, percentage change vs control", "setting": "[3]; 200 mcg/kg intragastrular", "value": "(−25%)"}, {"measurement": "lower cholesterol (lowering depending on dose)", "setting": "[3]; normal cholesterol", "value": "9–25%"}, {"measurement": "HDL, percentage related to the high-cholesterol diet", "setting": "[4]; 2 mcg/kg daily", "value": "−1", "unit": "%"}, {"measurement": "LDL, percentage related to the high-cholesterol diet", "setting": "[4]; 2 mcg/kg daily", "value": 0, "unit": "%"}, {"measurement": "Total cholesterol, percentage related to the high-cholesterol diet", "setting": "[4]; 2 mcg/kg daily", "value": "(−34%)"}, {"measurement": "Triglycerids, percentage related to the high-cholesterol diet", "setting": "[4]; 2 mcg/kg daily", "value": "−58", "unit": "%"}, {"measurement": "VLDL, percentage related to the high-cholesterol diet", "setting": "[4]; 2 mcg/kg daily", "value": "+9%"}, {"measurement": "Vitamin A, percentage related to the high-cholesterol diet", "setting": "[4]; 2 mcg/kg daily", "value": 16, "unit": "%"}, {"measurement": "Vitamin E, percentage related to the high-cholesterol diet", "setting": "[4]; 2 mcg/kg daily", "value": 53, "unit": "%"}, {"measurement": "reduction of plasma concentration of total cholesterol vs high-cholesterol diet without EBI", "setting": "[4]; 2 mcg/kg daily", "value": 34, "unit": "%"}, {"measurement": "reduction of plasma concentration of triglycerides vs high-cholesterol diet without EBI", "setting": "[4]; 2 mcg/kg daily", "value": 58, "unit": "%"}, {"measurement": "Vitamin A, percentage related to the high-cholesterol diet", "setting": "[4]; [5]", "value": "+16%"}, {"measurement": "Vitamin E, percentage related to the high-cholesterol diet", "setting": "[4]; [5]", "value": "(+53%)"}, {"measurement": "HDL, percentage related to the high-cholesterol diet", "setting": "[4]; 20 mcg/kg daily", "value": 47, "unit": "%"}, {"measurement": "LDL, percentage related to the high-cholesterol diet", "setting": "[4]; 20 mcg/kg daily", "value": "(−11%)"}, {"measurement": "Total cholesterol, percentage related to the high-cholesterol diet", "setting": "[4]; 20 mcg/kg daily", "value": "(−44%)"}, {"measurement": "Triglycerids, percentage related to the high-cholesterol diet", "setting": "[4]; 20 mcg/kg daily", "value": "−68", "unit": "%"}, {"measurement": "VLDL, percentage related to the high-cholesterol diet", "setting": "[4]; 20 mcg/kg daily", "value": "−11", "unit": "%"}, {"measurement": "Vitamin A, percentage related to the high-cholesterol diet", "setting": "[4]; 20 mcg/kg daily", "value": 30, "unit": "%"}, {"measurement": "Vitamin E, percentage related to the high-cholesterol diet", "setting": "[4]; 20 mcg/kg daily", "value": 51, "unit": "%"}, {"measurement": "reduction of low-density lipoprotein vs high-cholesterol diet only", "setting": "[4]; 20 mcg/kg daily", "value": 11, "unit": "%"}, {"measurement": "reduction of plasma concentration of total cholesterol vs high-cholesterol diet only", "setting": "[4]; 20 mcg/kg daily", "value": 44, "unit": "%"}, {"measurement": "reduction of plasma concentration of triglycerides vs high-cholesterol diet only", "setting": "[4]; 20 mcg/kg daily", "value": 68, "unit": "%"}, {"measurement": "HDL, percentage related to the high-cholesterol diet", "setting": "[4]; [6]", "value": "(+47%)"}, {"measurement": "Vitamin A, percentage related to the high-cholesterol diet", "setting": "[4]; [6]", "value": "(+30%)"}, {"measurement": "Vitamin E, percentage related to the high-cholesterol diet", "setting": "[4]; [6]", "value": "(+51%)"}, {"measurement": "decrease of VLDL level", "setting": "[4]; 20 mcg/kg", "value": 11, "unit": "%"}, {"measurement": "HDL", "setting": "[4]; 2 mcg/kg daily", "value": "19.45 ± 1.14", "unit": "%"}, {"measurement": "LDL", "setting": "[4]; 2 mcg/kg daily", "value": "75.24 ± 1.23", "unit": "%"}, {"measurement": "VLDL", "setting": "[4]; 2 mcg/kg daily", "value": "5.31 ± 0.24", "unit": "%"}, {"measurement": "HDL", "setting": "[4]; 20 mcg/kg daily", "value": "28.72 ± 1.22", "unit": "%"}, {"measurement": "LDL", "setting": "[4]; 20 mcg/kg daily", "value": "66.97 ± 1.23", "unit": "%"}, {"measurement": "VLDL", "setting": "[4]; 20 mcg/kg daily", "value": "4.33 ± 0.45", "unit": "%"}, {"measurement": "Total cholesterol", "setting": "[4]; 2 mcg/kg daily", "value": "64.94 ± 5.15", "unit": "mg/deciliter"}, {"measurement": "Triglycerids", "setting": "[4]; 2 mcg/kg daily", "value": "0.80 ± 0.09", "unit": "mmol/L"}, {"measurement": "Vitamin A", "setting": "[4]; 2 mcg/kg daily", "value": "0.26 ± 0.02", "unit": "mmol/L"}, {"measurement": "Vitamin E", "setting": "[4]; 2 mcg/kg daily", "value": "1.90 ± 0.14", "unit": "mmol/L"}, {"measurement": "Total cholesterol", "setting": "[4]; 20 mcg/kg daily", "value": "55.04 ± 4.36", "unit": "mg/deciliter"}, {"measurement": "Triglycerids", "setting": "[4]; 20 mcg/kg daily", "value": "0.60 ± 0.04", "unit": "mmol/L"}, {"measurement": "Vitamin A", "setting": "[4]; 20 mcg/kg daily", "value": "0.29 ± 0.01", "unit": "mmol/L"}, {"measurement": "Vitamin E", "setting": "[4]; 20 mcg/kg daily", "value": "1.88 ± 0.10", "unit": "mmol/L"}, {"measurement": "decrease of total cholesterol", "setting": "[4]; doses of 2 and 20 mcg/kg", "value": "34–44%"}, {"measurement": "decrease of triglycerides", "setting": "[4]; doses of 2 and 20 mcg/kg", "value": "58–68%"}]}
